# Measured values as given in PubChem BioAssay (NCI).
# “And” between values parts separate entries of the source, which are not always exact repeats. Equal values may be shown once.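 Briefly, cells in 96-well plates were exposed to five compound concentrations for 48 h, and endpoints were estimated by linear interpolation. At the GI50, growth is halved. TGI: concentration producing complete growth inhibition.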
# Legend:
# Assay in all cases: NCI anticancer screen, dose series, 48 h
# OVCAR-3 ovarian = tested on: OVCAR-3 ovarian
# SNB-19 CNS = tested on: SNB-19 CNS
# HT29 colon = tested on: HT29 colon
# PC-3 prostate = tested on: PC-3 prostate
# UO-31 renal = tested on: UO-31 renal
# M14 melanoma = tested on: M14 melanoma
# HCT-15 colon = tested on: HCT-15 colon
# SN12C renal = tested on: SN12C renal
# OVCAR-5 ovarian = tested on: OVCAR-5 ovarian
# NCI-H23 lung = tested on: NCI-H23 lung
SMILES,GI50 (OVCAR-3 ovarian),TGI (OVCAR-3 ovarian),GI50 (SNB-19 CNS) [µM],TGI (SNB-19 CNS),GI50 (HT29 colon),TGI (HT29 colon) [µM],GI50 (PC-3 prostate) [µM],TGI (PC-3 prostate) [µM],GI50 (UO-31 renal),TGI (UO-31 renal),GI50 (M14 melanoma) [µM],TGI (M14 melanoma) [µM],GI50 (HCT-15 colon) [µM],TGI (HCT-15 colon),GI50 (SN12C renal) [µM],TGI (SN12C renal),GI50 (OVCAR-5 ovarian) [µM],TGI (OVCAR-5 ovarian) [µM],GI50 (NCI-H23 lung) [µM],TGI (NCI-H23 lung)
COc1cc2c3c(n(CCCNCCCCN)c(=O)c2cc1OC)-c1cc2c(cc1C3=O)OCO2,2.77 µM,14.1 µM,2.65,18.8 µM,4.57 µM,> 100,4.51,26,7.39 µM,> 58.5 µM,9.19,27.6,17.5,> 54.4 µM,0.373,5.89 µM,13.5,41,1.63,10.7 µM
C/C=C(/C)C(=O)OC1C=C(CO)C(=O)C(OC(=O)C2(C)OC2C)C1C(C)C (stereo not drawn),1.17 µM,2.45 µM,2.33,5.87 µM,1.66 µM,3.38,1.75,4.5,1.61 µM,2.96 µM,1.58,3.49,1.4,3.09 µM,1.45,2.99 µM,1.93,3.74,2.09,4.88 µM
CC[C@@]1(O)C(=O)OCc2c1cc1n(c2=O)Cc2cc3cc(O)ccc3nc2-1,0.069 µM and 0.0368 µM,0.301 µM and 0.228 µM,0.00946,75 µM and > 23.4 µM,0.16 µM and 0.167 µM,18.4,,> 100,0.0311 µM and 0.0195 µM,0.204 µM and 0.135 µM,,1.39,0.355,20.8 µM and 42.5 µM,,1.48 µM and 3.54 µM,0.122,,,0.109 µM and 0.0424 µM
Nc1nc(N)c2c(Cl)c(CNc3ccc(Cl)c(Cl)c3)ccc2n1,,11 µM,,17.7 µM,,10.3,,12.7,,10.3 µM,,3.87,,13.6 µM,,23.3 µM,,12.1,,5.43 µM
Oc1c(Cl)cc(Cl)c(Cl)c1Cc1c(O)c(Cl)cc(Cl)c1Cl,1.34 µM,8.47 µM,0.908,58.9 µM,2.81 µM,12.4,0.498,10.6,2.18 µM,11.8 µM,1.38,13.9,0.528,13.7 µM,0.431,22.2 µM,6.14,19.1,0.593,12 µM
CCCCNC(=O)CC1=C(C)/C(=C/c2[nH]c(-c3ccc[nH]3)cc2OC)N=C1C,2.58 µM,9.77 µM,4.09,30.1 µM,2.18 µM,11.1,2.36,14.5,1.9 µM,4 µM,1.83,3.91,1.88,4.12 µM,,,3.19,34.1,3.03,21 µM
CC(=O)NC(CCc1ccc(Cl)c(Cl)c1)c1cccc(O)c(=O)c1 (stereo not drawn),0.358 µM,14.7 µM,0.919,18.8 µM,0.784 µM,22,0.78,24.7,0.109 µM,2.2 µM,0.434,3.09,0.131,19.6 µM,0.485,13.1 µM,1.58,21.8,1.11,18.9 µM
